According to US8916551B2, “Heterocyclic compound and use thereof” (Takeda Pharmaceutical Company Limited, priority 2010, dated 2014):

molecular target: T1, AMPA receptor (human GluR1 flip/stargazin expressed in CHO-K1 cells) (Homo sapiens, UniProt P42261); test: AMPA receptor function enhancing activity using calcium influx as index; type: cell-based; conditions: test compound 30 μM with glutamic acid final 3 mM, change in fluorescence in 3 min, 100% = 3 mM glutamic acid + 300 μM cyclothiazide, 0% = 3 mM glutamic acid only
T1 construct: expressed in transfected cells; host or cells: CHO-K1
T1 sequence (P42261 19-906 isoform P42261-2 limits assumed): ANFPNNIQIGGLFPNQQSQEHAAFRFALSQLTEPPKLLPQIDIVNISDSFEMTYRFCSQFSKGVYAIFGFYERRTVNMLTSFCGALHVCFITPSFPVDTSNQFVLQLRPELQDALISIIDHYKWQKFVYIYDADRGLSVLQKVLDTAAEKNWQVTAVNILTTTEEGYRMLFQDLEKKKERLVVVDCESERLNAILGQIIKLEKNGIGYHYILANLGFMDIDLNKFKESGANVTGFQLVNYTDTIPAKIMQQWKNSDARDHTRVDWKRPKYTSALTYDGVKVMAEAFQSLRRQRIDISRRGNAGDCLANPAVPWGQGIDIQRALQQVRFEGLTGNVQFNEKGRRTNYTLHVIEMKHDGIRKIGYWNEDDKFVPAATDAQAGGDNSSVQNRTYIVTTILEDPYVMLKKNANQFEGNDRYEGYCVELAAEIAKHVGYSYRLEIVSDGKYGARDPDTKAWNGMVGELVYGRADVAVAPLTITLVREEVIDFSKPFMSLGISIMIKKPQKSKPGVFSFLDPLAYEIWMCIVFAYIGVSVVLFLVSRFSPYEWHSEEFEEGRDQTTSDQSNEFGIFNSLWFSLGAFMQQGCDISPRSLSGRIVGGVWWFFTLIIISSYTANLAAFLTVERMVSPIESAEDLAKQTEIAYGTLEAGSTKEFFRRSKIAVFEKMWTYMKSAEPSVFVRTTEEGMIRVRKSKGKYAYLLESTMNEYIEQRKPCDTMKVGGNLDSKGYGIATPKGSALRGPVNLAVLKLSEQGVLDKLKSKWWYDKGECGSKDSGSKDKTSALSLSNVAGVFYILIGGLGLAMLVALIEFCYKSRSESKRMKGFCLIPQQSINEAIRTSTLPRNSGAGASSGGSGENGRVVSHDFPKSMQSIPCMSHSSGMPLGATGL
T1 sequence (Q9Y698 whole entry partner): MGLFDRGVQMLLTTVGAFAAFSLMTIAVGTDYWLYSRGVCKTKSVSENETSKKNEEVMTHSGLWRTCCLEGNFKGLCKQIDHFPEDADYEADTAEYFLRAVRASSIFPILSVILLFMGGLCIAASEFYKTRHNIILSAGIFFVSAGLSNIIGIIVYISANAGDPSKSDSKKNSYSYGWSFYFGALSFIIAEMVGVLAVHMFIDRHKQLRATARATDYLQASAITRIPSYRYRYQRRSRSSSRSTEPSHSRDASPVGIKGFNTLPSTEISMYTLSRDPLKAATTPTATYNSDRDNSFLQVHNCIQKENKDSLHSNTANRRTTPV
Outline: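 CHO-K1 clone stably co-expressing human GluR1 flip and stargazin, loaded with Calcium 4 dye plus probenecid. Compound at 30 μM was added with glutamate (3 mM final) and fluorescence change followed over 3 min. Activity is expressed as % of the 3 mM glutamate plus 300 μM cyclothiazide response, with glutamate alone as 0%.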

Compound	activity (%)
O=S1(=O)CCN2C=CC=C(c3ccc(-c4ccccc4)cc3)C2=N1 [Example 14, 9-biphenyl-4-yl-3,4-dihydropyrido[2,1-c][1,2,4]thiadiazine 2,2-dioxide]	78
CC(C)c1ccc(C2=CC=CN3CCS(=O)(=O)N=C23)cc1 [Example 23, 9-[4-(1-methylethyl)phenyl]-3,4-dihydropyrido[2,1-c][1,2,4]thiadiazine 2,2-dioxide]	104
CC(C)c1ccc(C#CC2=CC=CN3CCS(=O)(=O)N=C23)cc1 [Example 26, 9-{[4-(1-methylethyl)phenyl]ethynyl}-3,4-dihydropyrido[2,1-c][1,2,4]thiadiazine 2,2-dioxide]	87
O=S1(=O)CCN2CCCC(c3ccc(-c4ccccc4)cc3)C2=N1 (stereo not shown) [Example 28, 9-biphenyl-4-yl-3,4,6,7,8,9-hexahydropyrido[2,1-c][1,2,4]thiadiazine 2,2-dioxide]	80
O=S1(=O)CCN2C=CC=C(c3ccc(Oc4ccccc4)cc3)C2=N1 [Example 31, 9-(4-phenoxyphenyl)-3,4-dihydropyrido[2,1-c][1,2,4]thiadiazine 2,2-dioxide]	79
O=S1(=O)CCN2C=CC=C(c3ccc(OC(F)(F)F)cc3)C2=N1 [Example 34, 9-[4-(trifluoromethoxy)phenyl]-3,4-dihydropyrido[2,1-c][1,2,4]thiadiazine 2,2-dioxide]	78
Cn1ccc2cc(C3=CC=CN4CCS(=O)(=O)N=C34)ccc21 [Example 412, 9-(1-methyl-1H-indol-5-yl)-3,4-dihydropyrido[2,1-c][1,2,4]thiadiazine 2,2-dioxide]	91
Cc1ccc(C2=CC=CN3CCS(=O)(=O)N=C23)cc1F [Example 423, 9-(3-fluoro-4-methylphenyl)-3,4-dihydropyrido[2,1-c][1,2,4]thiadiazine 2,2-dioxide]	80
O=S1(=O)CCN2CCCC(c3ccc(Oc4ccccc4Cl)cc3)C2=N1 (stereo not shown) [Example 433, 9-[4-(2-chlorophenoxy)phenyl]-3,4,6,7,8,9-hexahydropyrido[2,1-c][1,2,4]thiadiazine 2,2-dioxide]	55
O=S1(=O)CCN2CCCC(c3ccc(Oc4ccc(F)c(Cl)c4)cc3)C2=N1 (stereo not shown) [Example 447, 9-[4-(3-chloro-4-fluorophenoxy)phenyl]-3,4,6,7,8,9-hexahydropyrido[2,1-c][1,2,4]thiadiazine 2,2-dioxide]	78
COc1ccc2ccc(OC3CCCN4CCS(=O)(=O)N=C34)cc2c1 (stereo not shown) [Example 462, 9-[(7-methoxynaphthalen-2-yl)oxy]-3,4,6,7,8,9-hexahydropyrido[2,1-c][1,2,4]thiadiazine 2,2-dioxide]	69

system: not given; test: not given; conditions: not given

Compound	melting point [°C]
O=S1(=O)CCN2C=CC=C(c3ccc(-c4ccccc4)cc3)C2=N1 [Example 14, 9-biphenyl-4-yl-3,4-dihydropyrido[2,1-c][1,2,4]thiadiazine 2,2-dioxide]	315 to 316
CC(C)c1ccc(C2=CC=CN3CCS(=O)(=O)N=C23)cc1 [Example 23, 9-[4-(1-methylethyl)phenyl]-3,4-dihydropyrido[2,1-c][1,2,4]thiadiazine 2,2-dioxide]	239 to 241
CC(C)c1ccc(C#CC2=CC=CN3CCS(=O)(=O)N=C23)cc1 [Example 26, 9-{[4-(1-methylethyl)phenyl]ethynyl}-3,4-dihydropyrido[2,1-c][1,2,4]thiadiazine 2,2-dioxide]	258 to 262
O=S1(=O)CCN2CCCC(c3ccc(-c4ccccc4)cc3)C2=N1 (stereo not shown) [Example 28, 9-biphenyl-4-yl-3,4,6,7,8,9-hexahydropyrido[2,1-c][1,2,4]thiadiazine 2,2-dioxide]	238 to 239
O=S1(=O)CCN2C=CC=C(c3ccc(Oc4ccccc4)cc3)C2=N1 [Example 31, 9-(4-phenoxyphenyl)-3,4-dihydropyrido[2,1-c][1,2,4]thiadiazine 2,2-dioxide]	252 to 253
CCC(C)c1ccc(C2=CC=CN3CCS(=O)(=O)N=C23)cc1 (stereo not shown) [Example 32, 9-[4-(1-methylpropyl)phenyl]-3,4-dihydropyrido[2,1-c][1,2,4]thiadiazine 2,2-dioxide]	237 to 239
CC(C)Oc1ccc(C2=CC=CN3CCS(=O)(=O)N=C23)cc1 [Example 33, 9-[4-(1-methylethoxy)phenyl]-3,4-dihydropyrido[2,1-c][1,2,4]thiadiazine 2,2-dioxide]	245 to 247
O=S1(=O)CCN2C=CC=C(c3ccc(OC(F)(F)F)cc3)C2=N1 [Example 34, 9-[4-(trifluoromethoxy)phenyl]-3,4-dihydropyrido[2,1-c][1,2,4]thiadiazine 2,2-dioxide]	249 to 251
CC(C)(C)c1ccc(C2=CC=CN3CCS(=O)(=O)N=C23)cc1 [Example 35, 9-(4-tert-butylphenyl)-3,4-dihydropyrido[2,1-c][1,2,4]thiadiazine 2,2-dioxide]	291 to 292
CC(C)(C)c1ccc(C2CCCN3CCS(=O)(=O)N=C23)cc1 (stereo not shown) [Example 38, 9-(4-tert-butylphenyl)-3,4,6,7,8,9-hexahydropyrido[2,1-c][1,2,4]thiadiazine 2,2-dioxide]	232 to 236
CC(C)Oc1ccc(C2CCCN3CCS(=O)(=O)N=C23)cc1 (stereo not shown) [Example 40, 9-[4-(1-methylethoxy)phenyl]-3,4,6,7,8,9-hexahydropyrido[2,1-c][1,2,4]thiadiazine 2,2-dioxide]	191 to 192
O=S1(=O)CCN2CCCC(c3ccc(OC(F)(F)F)cc3)C2=N1 (stereo not shown) [Example 41, 9-[4-(trifluoromethoxy)phenyl]-3,4,6,7,8,9-hexahydropyrido[2,1-c][1,2,4]thiadiazine 2,2-dioxide]	207 to 208
CC(C)c1ccc(C2CCCN3CCS(=O)(=O)N=C23)cc1 (stereo not shown) [Example 42, 9-[4-(1-methylethyl)phenyl]-3,4,6,7,8,9-hexahydropyrido[2,1-c][1,2,4]thiadiazine 2,2-dioxide]	198 to 203
O=S1(=O)CCN2C=CC=C(c3ccc(-c4ccccc4)s3)C2=N1 [Example 50, 9-(5-phenylthiophen-2-yl)-3,4-dihydropyrido[2,1-c][1,2,4]thiadiazine 2,2-dioxide]	241 to 242
O=S1(=O)CCN2CCC[C@H](c3ccc(Oc4ccccc4)cc3)C2=N1 [Example 62, (9R)-9-(4-phenoxyphenyl)-3,4,6,7,8,9-hexahydropyrido[2,1-c][1,2,4]thiadiazine 2,2-dioxide]	171 to 176
O=S1(=O)CCN2C=CC=C(c3ccc(OC4CCCC4)cc3)C2=N1 [Example 66, 9-[4-(cyclopentyloxy)phenyl]-3,4-dihydropyrido[2,1-c][1,2,4]thiadiazine 2,2-dioxide]	254 to 256

Compound	melting point [°C]
O=S1(=O)CCN2C=CC=C(c3ccc(OCC4CCCC4)cc3)C2=N1 [Example 74, 9-[4-(cyclopentylmethoxy)phenyl]-3,4-dihydropyrido[2,1-c][1,2,4]thiadiazine 2,2-dioxide]	258 to 259
O=S1(=O)CCN2C=C(Cl)C=C(c3ccc(Oc4cc(C(F)(F)F)ccn4)cc3)C2=N1 [Example 76, 7-chloro-9-(4-{[4-(trifluoromethyl)pyridin-2-yl]oxy}phenyl)-3,4-dihydropyrido[2,1-c][1,2,4]thiadiazine 2,2-dioxide]	238 to 239
O=S1(=O)CCN2CCCC(c3ccc(Oc4ccc(Cl)cc4)cc3)C2=N1 (stereo not shown) [Example 150, 9-[4-(4-chlorophenoxy)phenyl]-3,4,6,7,8,9-hexahydropyrido[2,1-c][1,2,4]thiadiazine 2,2-dioxide]	183 to 185
O=S1(=O)CCN2C=CC=C(c3ccc(OC4CCCCC4)cc3)C2=N1 [Example 165, 9-[4-(cyclohexyloxy)phenyl]-3,4-dihydropyrido[2,1-c][1,2,4]thiadiazine 2,2-dioxide]	275 to 277
O=S1(=O)CCN2C=CC=C(c3ccc(Oc4ccccc4)cc3)C2=N1 [Example 166, 9-(4-phenoxyphenyl)-3,4-dihydropyrido[2,1-c][1,2,4]thiadiazine 2,2-dioxide]	251 to 252
O=S1(=O)CCN2C=CC=C(c3ccc(Oc4ccccc4)cc3)C2=N1 [Example 167, 9-(4-phenoxyphenyl)-3,4-dihydropyrido[2,1-c][1,2,4]thiadiazine 2,2-dioxide]	253 to 255
Cc1ccc(Oc2ccc(C3=CC=CN4CCS(=O)(=O)N=C34)cc2)cc1 [Example 168, 9-[4-(4-methylphenoxy)phenyl]-3,4-dihydropyrido[2,1-c][1,2,4]thiadiazine 2,2-dioxide]	248 to 250
CC(F)(F)c1ccc(Oc2ccc(C3CCCN4CCS(=O)(=O)N=C34)cc2)cc1 (stereo not shown) [Example 170, 9-{4-[4-(1,1-difluoroethyl)phenoxy]phenyl}-3,4,6,7,8,9-hexahydropyrido[2,1-c][1,2,4]thiadiazine 2,2-dioxide]	171 to 172
CCCOc1ccc(C2CCCN3CCS(=O)(=O)N=C23)cc1 (stereo not shown) [Example 190, 9-(4-propoxyphenyl)-3,4,6,7,8,9-hexahydropyrido[2,1-c][1,2,4]thiadiazine 2,2-dioxide]	169 to 170
O=S1(=O)CCN2C=CC=C(c3ccc(Oc4ccc(C(F)(F)F)cc4)cc3)C2=N1 [Example 200, 9-{4-[4-(trifluoromethyl)phenoxy]phenyl}-3,4-dihydropyrido[2,1-c][1,2,4]thiadiazine 2,2-dioxide]	253 to 255
CCCCOc1ccc(C2=CC=CN3CCS(=O)(=O)N=C23)cc1 [Example 209, 9-(4-butoxyphenyl)-3,4-dihydropyrido[2,1-c][1,2,4]thiadiazine 2,2-dioxide]	230 to 232
O=S1(=O)CCN2CCN[C@@H](c3ccc(Oc4ccccc4)cc3)C2=N1 [Example 212, (9S)-(4-phenoxyphenyl)-3,4,6,7,8,9-hexahydropyrazino[2,1-c][1,2,4]thiadiazine 2,2-dioxide]	124 to 125
O=S1(=O)CCN2CCN[C@H](c3ccc(Oc4ccccc4)cc3)C2=N1 [Example 213, (9R)-9-(4-phenoxyphenyl)-3,4,6,7,8,9-hexahydropyrazino[2,1-c][1,2,4]thiadiazine 2,2-dioxide]	124 to 125
CCc1ccc(Oc2ccc([C@H]3CCCN4CCS(=O)(=O)N=C34)cc2)cc1 [Example 217, (9R)-9-[4-(4-ethylphenoxy)phenyl]-3,4,6,7,8,9-hexahydropyrido[2,1-c][1,2,4]thiadiazine 2,2-dioxide]	152 to 153
O=S1(=O)CCN2CCCC(c3ccc(Oc4ccc(C(F)(F)F)cc4)cc3)C2=N1 (stereo not shown) [Example 233, 9-{4-[4-(trifluoromethyl)phenoxy]phenyl}-3,4,6,7,8,9-hexahydropyrido[2,1-c][1,2,4]thiadiazine 2,2-dioxide]	177 to 179
O=S1(=O)CCN2CCC[C@@H](c3ccc(Oc4ccc(F)c(Cl)c4)cc3)C2=N1 [Example 457, (9S)-9-[4-(3-chloro-4-fluorophenoxy)phenyl]-3,4,6,7,8,9-hexahydropyrido[2,1-c][1,2,4]thiadiazine 2,2-dioxide]	154 to 156
